Measurements from patent US6689773B2, “Uracil substituted phenyl sulfamoyl carboxamides” (BASF Aktiengesellschaft, priority 2000, dated 2004).

Legend:
Format in all cases: in vivo
[1] = system: XANST, Cocklebur, Xanthium strumariam; assay: Preemergence herbicidal evaluation (Example 148); conditions: rating scale 0-9, two to four weeks after treatment
Experimental: (§1) The scale is based upon a visual observation of plant stand, vigor, malformation, size, chlorosis and overall plant appearance as compared with a control.
(§2) The herbicidal activity of the compounds of the present invention was evaluated by the following tests wherein the seeds of a variety of monocotyledonous and dicotyledonous plants were separately mixed with potting soil and planted on top of approximately one inch of soil in separate pint cups. After planting, the cups were sprayed with the selected aqueous acetone solution containing test compound in sufficient quantity to provide the equivalent of about 0.125 to 0.250 kg per hectare of test compound per cup. The treated cups were then placed on greenhouse benches, watered and cared for in accordance with conventional greenhouse procedures. From two to four weeks after treatment, the tests were terminated and each cup was examined and rated according to the rating system provided in Example 94. When more than one test was performed for a given compound, the data were averaged.

[2] = system: SETVI, Green foxtail, Setaria viridis, (L.)Beau; assay: Preemergence herbicidal evaluation (Example 148); conditions: rating scale 0-9, two to four weeks after treatment
Experimental: as §1, §2

[3] = system: AMBEL, Ragweed, Common, Ambrosia artemiisifolia, L.; assay: Preemergence herbicidal evaluation (Example 148); conditions: rating scale 0-9, two to four weeks after treatment
Experimental: as §1, §2

[4] = system: ZEAMX, Field corn, Zea mays L.; assay: Preemergence herbicidal evaluation (Example 148); conditions: rating scale 0-9, two to four weeks after treatment
Experimental: as §1, §2

[5] = system: ALOMY, Blackgrass, Alopecurus myosuroides; assay: Preemergence herbicidal evaluation (Example 148); conditions: rating scale 0-9, two to four weeks after treatment
Experimental: as §1, §2

[6] = system: IPOHE, Morningglory, Ivyleaf, Ipomoea hederacea, (L)Jacq.; assay: Preemergence herbicidal evaluation (Example 148); conditions: rating scale 0-9, two to four weeks after treatment
Experimental: as §1, §2

[7] = system: ABUTH, Velvetleaf, Abutilon theophrasti, Medic.; assay: Preemergence herbicidal evaluation (Example 148); conditions: rating scale 0-9, two to four weeks after treatment
Experimental: as §1, §2

[8] = system: GLXMA, Soybean, Glycine max, (L.) Merr.; assay: Preemergence herbicidal evaluation (Example 148); conditions: rating scale 0-9, two to four weeks after treatment
Experimental: as §1, §2

[9] = system: TRZAW, Winter wheat, Tritium Aestivum, L. (Winter); assay: Preemergence herbicidal evaluation (Example 148); conditions: rating scale 0-9, two to four weeks after treatment
Experimental: as §1, §2

[10] = system: DIGSA, Crabgrass, (Hairy) L, Digitaria sanguinalis, (L)Scop; assay: Preemergence herbicidal evaluation (Example 148); conditions: rating scale 0-9, two to four weeks after treatment
Experimental: as §1, §2

[11] = system: ECHCG, Barnyardgrass, Echinochloa crusgalli, (L.)Beau; assay: Preemergence herbicidal evaluation (Example 148); conditions: rating scale 0-9, two to four weeks after treatment
Experimental: as §1, §2

[12] = system: CHEAL, Lambsquarters, Chenopodium album, L. Common; assay: Preemergence herbicidal evaluation (Example 148); conditions: rating scale 0-9, two to four weeks after treatment
Experimental: as §1, §2

[13] = system: SETVI, Green foxtail, Setaria viridis, (L.)Beau; assay: Postemergence herbicidal evaluation (Example 147); conditions: rating scale 0-9, two to three weeks after treatment
Experimental: (§3) Seedling plants were grown in jiffy flats for about two weeks. The test compounds were dispersed in 80/20 acetone/water mixtures containing 1.0% SUN-IT®II, a methylated seed oil, in sufficient quantities to provide the equivalent of about 0.016 to 0.032 kg per hectare of active compound when applied to the plants through a spray nozzle operating at 40 psi for a predetermined time. After spraying, the plants were placed on greenhouse benches and were cared for in accordance with conventional greenhouse procedures. Approximately two to three weeks after treatment, the seedling plants were examined and rated according to the rating scale (0-9) set forth below. Where more than one test is involved for a given compound, the data are averaged. [table] The scale is based upon a visual observation of plant stand, vigor, malformation, size, chlorosis and overall plant appearance as compared with a control. Plant species employed in these evaluations are reported by header abbreviation, common name and scientific name. [table]

[14] = system: AMBEL, Ragweed, Common, Ambrosia artemiisifolia, L.; assay: Postemergence herbicidal evaluation (Example 147); conditions: rating scale 0-9, two to three weeks after treatment
Experimental: as §3

[15] = system: ZEAMX, Field corn, Zea mays L.; assay: Postemergence herbicidal evaluation (Example 147); conditions: rating scale 0-9, two to three weeks after treatment
Experimental: as §3

[16] = system: ALOMY, Blackgrass, Alopecurus myosuroides; assay: Postemergence herbicidal evaluation (Example 147); conditions: rating scale 0-9, two to three weeks after treatment
Experimental: as §3

[17] = system: IPOHE, Morningglory, Ivyleaf, Ipomoea hederacea, (L)Jacq.; assay: Postemergence herbicidal evaluation (Example 147); conditions: rating scale 0-9, two to three weeks after treatment
Experimental: as §3

[18] = system: ABUTH, Velvetleaf, Abutilon theophrasti, Medic.; assay: Postemergence herbicidal evaluation (Example 147); conditions: rating scale 0-9, two to three weeks after treatment
Experimental: as §3

[19] = system: GLXMA, Soybean, Glycine max, (L.) Merr.; assay: Postemergence herbicidal evaluation (Example 147); conditions: rating scale 0-9, two to three weeks after treatment
Experimental: as §3

[20] = system: TRZAW, Winter wheat, Tritium Aestivum, L. (Winter); assay: Postemergence herbicidal evaluation (Example 147); conditions: rating scale 0-9, two to three weeks after treatment
Experimental: as §3

[21] = system: DIGSA, Crabgrass, (Hairy) L, Digitaria sanguinalis, (L)Scop; assay: Postemergence herbicidal evaluation (Example 147); conditions: rating scale 0-9, two to three weeks after treatment
Experimental: as §3

[22] = system: ECHCG, Barnyardgrass, Echinochloa crusgalli, (L.)Beau; assay: Postemergence herbicidal evaluation (Example 147); conditions: rating scale 0-9, two to three weeks after treatment
Experimental: as §3

[23] = system: CHEAL, Lambsquarters, Chenopodium album, L. Common; assay: Postemergence herbicidal evaluation (Example 147); conditions: rating scale 0-9, two to three weeks after treatment
Experimental: as §3

## C#CCNS(=O)(=O)NC(=O)c1cc(-n2c(=O)cc(C(F)(F)F)n(C)c2=O)c(F)cc1Cl [Example 71]
[1]; rate 0.125 kg/ha
  Preemergence herbicidal rating XANST: 0.0
[1]; rate 0.25 kg/ha
  Preemergence herbicidal rating XANST: 7.0
[2]; rate 0.125 kg/ha
  Preemergence herbicidal rating SETVI: 0.0
[2]; rate 0.25 kg/ha
  Preemergence herbicidal rating SETVI: 2.0
[3]; rate 0.125 kg/ha
  Preemergence herbicidal rating AMBEL: 8.0
[3]; rate 0.25 kg/ha
  Preemergence herbicidal rating AMBEL: 8.0
[4]; rate 0.125 kg/ha
  Preemergence herbicidal rating ZEAMX: 0.0
[4]; rate 0.25 kg/ha
  Preemergence herbicidal rating ZEAMX: 1.0
[5]; rate 0.125 kg/ha
  Preemergence herbicidal rating ALMOY: 0.0
[5]; rate 0.25 kg/ha
  Preemergence herbicidal rating ALMOY: 0.0
[6]; rate 0.125 kg/ha
  Preemergence herbicidal rating IPOHE: 9.0
[6]; rate 0.25 kg/ha
  Preemergence herbicidal rating IPOHE: 9.0
[7]; rate 0.125 kg/ha
  Preemergence herbicidal rating ABUTH: 9.0
[7]; rate 0.25 kg/ha
  Preemergence herbicidal rating ABUTH: 9.0
[8]; rate 0.125 kg/ha
  Preemergence herbicidal rating GLXMA: 0.0
[8]; rate 0.25 kg/ha
  Preemergence herbicidal rating GLXMA: 2.0
[9]; rate 0.125 kg/ha
  Preemergence herbicidal rating TRZAW: 0.0
[9]; rate 0.25 kg/ha
  Preemergence herbicidal rating TRZAW: 0.0
[10]; rate 0.125 kg/ha
  Preemergence herbicidal rating DIGSA: 0.0
[10]; rate 0.25 kg/ha
  Preemergence herbicidal rating DIGSA: 3.0
[11]; rate 0.125 kg/ha
  Preemergence herbicidal rating ECHCG: 0.0
[11]; rate 0.25 kg/ha
  Preemergence herbicidal rating ECHCG: 3.0
[12]; rate 0.125 kg/ha
  Preemergence herbicidal rating CHEAL: 9.0
[12]; rate 0.25 kg/ha
  Preemergence herbicidal rating CHEAL: 7.0
[13]; rate 0.016 kg/ha
  Postemergence herbicidal rating SETVI: 4.0
[13]; rate 0.032 kg/ha
  Postemergence herbicidal rating SETVI: 5.0
[14]; rate 0.016 kg/ha
  Postemergence herbicidal rating AMBEL: 6.0
[14]; rate 0.032 kg/ha
  Postemergence herbicidal rating AMBEL: 9.0
[15]; rate 0.016 kg/ha
  Postemergence herbicidal rating ZEAMX: 6.5
[15]; rate 0.032 kg/ha
  Postemergence herbicidal rating ZEAMX: 6.5
[16]; rate 0.016 kg/ha
  Postemergence herbicidal rating ALMOY: 1.0
[16]; rate 0.032 kg/ha
  Postemergence herbicidal rating ALMOY: 1.0
[17]; rate 0.016 kg/ha
  Postemergence herbicidal rating IPOHE: 8.0
[17]; rate 0.032 kg/ha
  Postemergence herbicidal rating IPOHE: 9.0
[18]; rate 0.016 kg/ha
  Postemergence herbicidal rating ABUTH: 9.0
[18]; rate 0.032 kg/ha
  Postemergence herbicidal rating ABUTH: 9.0
[19]; rate 0.016 kg/ha
  Postemergence herbicidal rating GLXMA: 8.0
[19]; rate 0.032 kg/ha
  Postemergence herbicidal rating GLXMA: 8.0
[20]; rate 0.016 kg/ha
  Postemergence herbicidal rating TRZAW: 4.5
[20]; rate 0.032 kg/ha
  Postemergence herbicidal rating TRZAW: 4.5
[21]; rate 0.016 kg/ha
  Postemergence herbicidal rating DIGSA: 2.0
[21]; rate 0.032 kg/ha
  Postemergence herbicidal rating DIGSA: 3.0
[22]; rate 0.016 kg/ha
  Postemergence herbicidal rating ECHCG: 2.0
[22]; rate 0.032 kg/ha
  Postemergence herbicidal rating ECHCG: 3.0
[23]; rate 0.016 kg/ha
  Postemergence herbicidal rating CHEAL: 5.0
[23]; rate 0.032 kg/ha
  Postemergence herbicidal rating CHEAL: 5.0
